Experimental findings from patent US20250197403A1, “HETEROARYL COMPOUNDS FOR TREATMENT OF COMPLEMENT FACTOR D MEDIATED DISORDERS” (Achillion Pharmaceuticals, Inc., priority 2020, published 2025) are described below.

Usually IC50 stands for the concentration needed to halve the response being measured. Higher therefore signals weaker potency in that assay.

Chain of Human Factor D (P00746 26-253): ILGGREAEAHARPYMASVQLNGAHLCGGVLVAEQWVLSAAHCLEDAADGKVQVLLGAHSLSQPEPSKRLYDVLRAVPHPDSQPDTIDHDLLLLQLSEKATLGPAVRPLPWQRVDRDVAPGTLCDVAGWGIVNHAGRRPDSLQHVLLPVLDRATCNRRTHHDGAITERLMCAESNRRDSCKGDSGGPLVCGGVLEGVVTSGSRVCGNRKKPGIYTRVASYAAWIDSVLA

The assay addresses Human Factor D (Homo sapiens (Human), UniProt P00746). The assay is described as follows: Human Factor D Assay. The class given is biochemical. As to conditions: Human Factor D 80 nM, substrate Z-L-Lys-SBzl, assay according to Example 3. The gist of the method: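 Serum-purified factor D (80 nM final) preincubated with compound 5 min at room temperature in 50 mM Tris, 1M NaCl, pH 7.5. Z-L-Lys-SBzl substrate and DTNB added at 100 μM each; A405 read every 30 s for 30 min. IC50 from nonlinear regression of reaction rates versus compound concentration.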
Regarding `COCc1ccc(C(F)(F)F)nc1NC(=O)[C@@H]1C[C@@]2(C)C[C@H]2N1C(=O)Cn1cc(C(C)=O)c2cc(-c3cnc4cc(C)nn4c3)cc(C)c21` [Compound 53, (1R,3S,5R)-2-(2-(3-acetyl-7-methyl-5-(2-methylpyr-azolo[1,5-a]pyrimidin-6-yl)-1H-indol-1-yl)acetyl)-N-(3-(methoxymethyl)-6-(trifluoromethyl)pyridin-2-yl)-5-methyl-2-azabicyclo [3.1.0]hexane-3-carbox-amide], the concentration for half-maximal inhibition (IC50) is less than 1000 nM.

The compound `CC(=O)c1cn(CC(=O)N2[C@H](C(=O)Nc3nc(C(F)(F)F)cc(F)c3C)C[C@@]3(C)C[C@@H]23)c2c(C)cc(-c3cnc(C)nc3)cc12` [Compound 54, (1R,3S,5R)-2-(2-(3-acetyl-7-methyl-5-(2-methylpyr-imidin-5-yl)-1H-indol-1-yl)acetyl)-N-(4-fluoro-3-methyl-6-(trifluorometh-yl)pyridin-2-yl)-5-methyl-2-azabicyclo[3.1.0]hexane-3-carboxamide] returned an IC50 of less than 1000 nM.

Regarding `CC(=O)c1cn(CC(=O)N2[C@H](C(=O)Nc3nc(C(F)(F)F)ccc3C)C[C@@]3(C)C[C@@H]23)c2c(C)nc(-c3cnc4cc(C)nn4c3)cc12` [Compound 55, (1R,3S,5R)-2-(2-(3-acetyl-7-methyl-5-(2-methylpyr-azolo[1,5-a]pyrimidin-6-yl)-1H-pyrrolo[2,3-c]pyr-idin-1-yl)acetyl)-5-methyl-N-(3-methyl-6-(trifluoro-methyl)pyridin-2-yl)-2-azabicyclo[3.1.0]hexane-3-carboxamide], the half-maximal inhibitory concentration (IC50) was less than 1000 nM.

For the compound `CC(=O)c1cn(CC(=O)N2[C@H](C(=O)Nc3nc(C(F)(F)F)ccc3C)C[C@@]3(C)C[C@@H]23)c2c(C)nc(-c3ccc4nc(C)nn4c3)cc12` [Compound 56, (1R,3S,5R)-2-(2-(3-acetyl-7-methyl-5-(2-methyl-[1,2,4]triazolo[1,5-a]pyr-idin-6-yl)-1H-pyrrolo[2,3-c]pyridin-1-yl)acetyl)-5-methyl-N-(3-methyl-6-(trifluoromethyl)pyridin-2-yl)-2-azabicyclo[3.1.0] hexane-3-carboxamide], the 50% inhibitory concentration (IC50) was less than 1000 nM.

`CC(=O)c1cn(CC(=O)N2[C@H](C(=O)Nc3nc(C(F)(F)F)ncc3C)C[C@@]3(C)C[C@@H]23)c2c(C)cc(-c3cnc(C)nc3)cc12` [Compound 57, (1R,3S,5R)-2-(2-(3-acetyl-7-methyl-5-(2-methylpyr-imidin-5-yl)-1H-indol-1-yl)acetyl)-5-methyl-N-(5-methyl-2-(trifluorometh-yl)pyrimidin-4-yl)-2-aza-bicyclo[3.1.0]hexane-3-carboxamide] displayed an IC50 of less than 1000 nM.

For the compound `CC(=O)c1cn(CC(=O)N2[C@H](C(=O)Nc3nc(C(F)(F)F)cc(F)c3C)C[C@@]3(C)C[C@@H]23)c2c(C)cc(-c3ccc4nc(C)nn4c3)cc12` [Compound 58, (1R,3S,5R)-2-(2-(3-acetyl-7-methyl-5-(2-methyl-[1,2,4]triazolo[1,5-a]pyr-idin-6-yl)-1H-indol-1-yl)-acetyl)-N-(4-fluoro-3-methyl-6-(trifluorometh-yl)pyridin-2-yl)-5-methyl-2-azabicyclo[3.1.0]hexane-3-carboxamide], the concentration for half-maximal inhibition (IC50) was less than 1000 nM.

For the compound `CC(=O)c1cn(CC(=O)N2[C@H](C(=O)Nc3nc(C(F)(F)F)cnc3C)C[C@@]3(C)C[C@@H]23)c2c(C)cc(-c3cnc(C)nc3)cc12` [Compound 59, (1R,3S,5R)-2-(2-(3-acetyl-7-methyl-5-(2-methylpyr-imidin-5-yl)-1H-indol-1-yl)acetyl)-5-methyl-N-(3-methyl-6-(trifluorometh-yl)pyrazin-2-yl)-2-azabi-cyclo[3.1.0]hexane-3-car-boxamide], the IC50 fell in the range of 1000 to 10000 nM.

As to `CC(=O)c1cn(CC(=O)N2[C@H](C(=O)Nc3nc(C(F)(F)F)cnc3C)C[C@@]3(C)C[C@@H]23)c2c(C)cc(-c3cnc4cc(C)nn4c3)cc12` [Compound 60, (1R,3S,5R)-2-(2-(3-acetyl-7-methyl-5-(2-methylpyr-azolo[1,5-a]pyrimidin-6-yl)-1H-indol-1-yl)acetyl)-5-methyl-N-(3-methyl-6-(trifluoromethyl)pyrazin-2-yl)-2-azabicyclo[3.1.0] hexane-3-carboxamide], the half-inhibitory concentration (IC50) was less than 1000 nM.
